Results from patent publication US20090053199A1, “Stable Dairy Components Effective for Fat Loss” (priority 2005, published 2009).

Test system: transgenic mice expressing agouti specifically in adipocytes under the control of the aP2 promoter
Assay: Example 2: weight, fat pad and muscle mass after six weeks on diets including fresh whey products
Type: in vivo
Conditions: Example 2, FIG. 11, 1 = Ad Lib, 2 = loCa, 3 = milk, 4 = fresh whey protein, 5 = casein, 6 = soy, 7 = fresh whey mineral, 8 = fresh whey mineral/ACE
Excerpt: The same animals were used as in Example 1. […] All diets had 25% fat (lard+soy oil), with sucrose as sole carbohydrate and the proteins indicated as the sole protein source. Group 1 continued for 6 weeks on the above diet ad libitum. Groups 2-8 continued for six weeks on a restricted diet (70% of the ad libitum energy intake). […] Group 8 used a fresh whey mineral isolate with a whey-derived ACE-inhibitor (e.g., BIPRO). During the six weeks, body weight, food intake and core temperature were measured weekly. […] Specifically, core temperature was monitored weekly as an indirect metabolic index using a thermocouple, and fasting insulin (by radioimmunoassay), leptin (by radioimmunoassay) and glucose (by glucose oxidase) levels were assessed at baseline and at weeks 2, and 6. At the conclusion of the study, all mice were sacrificed under isofluorane anaesthesia and individual subcutaneous and visceral fat depots were excised and weighed for comparison of fat accumulation among the groups and assessment of adipocyte size and number via a Coulter Counter method. Aliquots of adipose tissue were then immediately frozen in liquid nitrogen for subsequent study of gene expression.

SMILES: O=C([O-])[O-].[Ca+2] [calcium carbonate]
- gastrocnemius muscle mass (most to least), Benefit Ranking: did not modify or attenuate this decrease
